# pKd: −log10 of the molar value.
# Target: Voltage-dependent L-type calcium channel (Cavia porcellus)
# Test: Displacement of [3H]nitrendipine from dihydropyridine receptor of guinea pig myocardial membranes
row,Structure (SMILES),pKd
1,"CSC1=NC(c2cccc([N+](=O)[O-])c2)C2=C(COC2=O)N1 (stereo unspecified) [2-Methylsulfanyl-4-(3-nitro-phenyl)-4,7-dihydro-1H-furo[3,4-d]pyrimidin-5-one]",4.43
2,"COC(=O)C1C(C)=NC(SC)=NC1c1cc([N+](=O)[O-])ccc1SC (stereo unspecified) [6-Methyl-2-methylsulfanyl-4-(2-methylsulfanyl-5-nitro-phenyl)-1,4-dihydro-pyrimidine-5-carboxylic acid methyl ester]",5.57
3,"CCCCSc1ccccc1C1N=C(SC)Nc2coc(O)c21 (stereo unspecified) [4-(2-Butylsulfanyl-phenyl)-2-methylsulfanyl-4,7-dihydro-1H-furo[3,4-d]pyrimidin-5-one]",< 4.30
4,"COC(=O)C1C(C)=NC(SC)=NC1c1cccc([N+](=O)[O-])c1 (stereo unspecified) [6-Methyl-2-methylsulfanyl-4-(3-nitro-phenyl)-1,4-dihydro-pyrimidine-5-carboxylic acid methyl ester]",6.32
5,"CSC1=NC(C)=C2C(=O)OCCCCCSc3c(cccc3[N+](=O)[O-])C2N1 (stereo unspecified) [4-Methyl-2-methylsulfanyl-13-nitro-3,8,9,10,11,16b-hexahydro-7H-6-oxa-12-thia-1,3-diaza-dibenzo[a,c]cyclododecen-5-one]",8.30
6,"CSC1=NC(c2cc([N+](=O)[O-])ccc2SC)C2=C(COC2=O)N1 (stereo unspecified) [2-Methylsulfanyl-4-(2-methylsulfanyl-5-nitro-phenyl)-4,7-dihydro-1H-furo[3,4-d]pyrimidin-5-one]",< 4.30
7,"CSC1=NC2c3ccccc3SCCCCCOC(=O)C2C(C)=N1 (stereo unspecified) [4-Methyl-2-methylsulfanyl-3,8,9,10,11,16b-hexahydro-7H-6-oxa-12-thia-1,3-diaza-dibenzo[a,c]cyclododecen-5-one]",7.74
8,"CSC1=NC2C(=C(C)N1)C(=O)OCCCCCSc1ccc([N+](=O)[O-])cc12 (stereo unspecified) [4-Methyl-2-methylsulfanyl-15-nitro-3,8,9,10,11,16b-hexahydro-7H-6-oxa-12-thia-1,3-diaza-dibenzo[a,c]cyclododecen-5-one]",6.06
9,"COC(=O)C1C(C)=NC(SC)=NC1c1ccccc1SC (stereo unspecified) [6-Methyl-2-methylsulfanyl-4-(2-methylsulfanyl-phenyl)-1,4-dihydro-pyrimidine-5-carboxylic acid methyl ester]",5.82
10,"CSC1=NC2=C(C(=O)OC2)C(c2cccc([N+](=O)[O-])c2SC)N1 (stereo unspecified) [2-Methylsulfanyl-4-(2-methylsulfanyl-3-nitro-phenyl)-4,7-dihydro-1H-furo[3,4-d]pyrimidin-5-one]",4.86
11,"CSC1=NC(c2ccccc2SC)c2c(coc2O)N1 (stereo unspecified) [2-Methylsulfanyl-4-(2-methylsulfanyl-phenyl)-4,7-dihydro-1H-furo[3,4-d]pyrimidin-5-one]",4.34
